Reference: ChEMBL document CHEMBL3507680, “University of Dundee, Gates Library screen for HepG2 cell viability”

Experiment: Human HepG2 cell viability assay in 384 well format
Type: toxicity, cell-based
Set-up: dose 125 nL, time 70.5 hour; cytotoxicity at 70.5 h: concentration not given beside the values
Details: HepG2 cells, read-out: Inhibition

Row | SMILES | cytotoxicity at 70.5 h [%]
1 | O=C(Nc1ccccc1C(=O)NCCN1CCOCC1)c1ccco1 | 24.9
2 | CC(C)c1noc(C(C)Nc2nccc(CCC(F)(F)F)n2)n1 (stereo not given) | -10.8
3 | Cc1n[nH]c(C)c1CN1CCC(c2cc(C(C)C)n[nH]2)CC1 | 1.2
4 | Cc1nn(C)c2nc(N(C)CC3CCN(CC(C)C)C3)sc12 (stereo not given) | 1.29
5 | Cn1cc(-c2cc(C(=O)N3CCOCC3)c3ccc(F)cc3n2)cn1 | 24.6
6 | CN(C)CCN(C)c1nc(CCc2ccccc2)nc2c1cnn2C | -1.09
7 | COc1cc(Cl)cc(C(=O)N2CCC3(CC2)CNC(=O)C3)c1 | -15.2
8 | COc1ccc(C)cc1C(C(=O)O)N1CCN(Cc2ccccn2)CC1 (stereo not given) | 3.54
9 | Cc1nc(S(=O)(=O)N2CCc3[nH]nc(CCC(C)C)c3C2)cn1C | -6.22
10 | CCc1ccccc1OC1CN(C(=O)CN(C)Cc2ccncc2)C1 | -8.04
11 | O=C1CC2(CCN(Cc3ccoc3)CC2)CN1Cc1cc(F)cc(F)c1 | -6.12
12 | COCC[C@]1(O)CCN(C(=O)c2cnn(C)c2)C[C@H]1C | -0.906
13 | C[C@H](c1ccc(F)cc1)n1c(C2CCC2)n[nH]c1=O | -12.6
14 | Cc1cc(CN2CCCC2)cc(Oc2ccc3c(c2)CC(CN)O3)c1 (stereo not given) | -11.7
15 | Cc1cnccc1-n1nc(C(C)C)nc1CS(C)(=O)=O | -9.46
16 | COc1nccc(N2CC[C@@H](N3CCCCCC3)[C@H](O)C2)c1C#N | -11.1
17 | CC(C)CCn1cc(C(C(=O)O)N2CCC(N3CCSCC3)CC2)cn1 (stereo not given) | 3.77
18 | CCc1cc(N(C)Cc2c(C)nn(C)c2C)n2nccc2n1 | -2.89
19 | Cc1cc(C)c(C(=O)N2CCn3nc(C(=O)NCCN(C)C)cc3C2)[nH]1 | -3.17
20 | CCCc1nnc(N2CC[C@@](O)(C3CCOCC3)[C@H](C)C2)s1 | 3.18
21 | CC(c1ccon1)N(C)C(=O)C1CCN(CC(N)=O)CC1 (stereo not given) | 18
22 | Cc1nc(CN)cc(NCc2ccccc2-n2cncn2)n1 | 25

Row | SMILES | cytotoxicity at 70.5 h [%]
23 | O=C1O[C@@H]2CN(c3ncccn3)C[C@@H]2N1CCCc1ccc(F)cc1 | -7.46
24 | Cc1ccc(C)c(OCCN(C)C(=O)C2CCCN2C(N)=O)c1C (stereo not given) | -2.41
25 | CC(=O)N1CCc2c(nc(N(C)C)nc2NCCc2cccs2)C1 | -5.76
26 | CC(C)NC(=O)CN1CCN(CC2CCOc3ccccc3C2)CC1 (stereo not given) | -7.34
27 | CN1CC(c2ccccc2)CC12CCN(C(=O)c1ccc(Cl)cn1)CC2 (stereo not given) | 19.6
28 | COc1ccc2cc(-c3n[nH]cc3CN3CCSCC3)ccc2c1 | 0.45
29 | Cc1cc(C(=O)N(C)CCCn2cccn2)nc(N)n1 | -5.11
30 | COc1ccccc1N1CCN(C(=O)Cn2nccc2C)CC1(C)C | -3.69
31 | Cn1cc(CN2CC[C@@H]3[C@@H](CCC(=O)N3CC3CCNCC3)C2)cn1 | 1.94
32 | COC(=O)c1ccc(N2CCN(C(=O)c3ccc(=O)n(C)c3)CC2)cc1 | -5.8
33 | O=C(O)CC1COCCN1CCCc1ccccc1 (stereo not given) | -11.2
34 | CSc1ccccc1C(=O)NCc1cc2n(n1)CCCN(CC(C)C)C2 | 22.5
35 | Cc1nc2sccn2c1C(=O)N1CCc2[nH]cnc2C1 | 10.2
36 | CCn1ncnc1C(C)NC(=O)C1CCN(Cc2ccco2)CC1 (stereo not given) | -0.537
37 | O=C1CCCN1CCC1CCN(C2CCC3(CCNCC3)CC2)CC1 | -6.34
38 | CCC[C@H]1CN(c2nc(CO)cs2)C[C@@H]1NC(=O)C1(COC)CC1 | 4.28
39 | CC(C)c1noc(CN(C)C(=O)c2ccccc2-c2nc[nH]n2)n1 | 6.97
40 | CN(Cc1noc2c1CCCC2)C(=O)Cn1cnc2ccccc2c1=O | -9.78
41 | Cc1cc(C)c(C(=O)N2CCC3(CCCNC3)C2)cc1C (stereo not given) | 25.6
42 | c1cncc(-n2cnnc2CCCN2CCOCC2)c1 | 1.35
43 | CCOCCc1nc(Cc2ccccc2)n[nH]1 | -14.4
44 | CC(C)=CCC1(CO)CCCN(S(=O)(=O)N2CCCC2)C1 (stereo not given) | -14.7

Row | SMILES | cytotoxicity at 70.5 h [%]
45 | CC(C)N1CC(NC(=O)c2ccc(Cl)s2)CC1=O (stereo not given) | -6.6
46 | CCN1CCCC(c2c(-c3ccccc3)ncn2CCc2c[nH]cn2)C1 (stereo not given) | -11.9
47 | O=S1(=O)CCC(n2nc(COc3ccccc3)nc2-c2cnccn2)C1 (stereo not given) | -1.94
48 | CCCOc1ccccc1NCC(=O)Nc1ccc(CC)cc1 | -6.36
49 | COc1ccc(C(=O)N2C[C@@H](C(=O)O)[C@H](c3cccc(F)c3)C2)c(O)c1 | 5.73
50 | Cc1ccc(CN2CC3(CCNCC3)CCC2=O)c(F)c1F | -0.751
51 | CN(C)CC1(O)CCN(C(=O)c2cnc(-c3ccccn3)nc2)C1 (stereo not given) | 15.3
52 | O=C(CCCn1cncn1)N1CCC2(CCCNC2=O)C1 (stereo not given) | 0.299
53 | CCCn1ccnc1CN1C[C@@H](NC(C)=O)[C@H](c2ccc(C)cc2)C1 | -0.633
54 | Cc1cccnc1CN(C)c1ncnc2[nH]ccc12 | -6.05
55 | Cc1cc(S(=O)(=O)NCC2CNCCOC2)c(C)cc1Cl (stereo not given) | 1.99
56 | O=C(CN1CC(c2ccccc2)CC1=O)N1CCN(c2nccs2)CC1 (stereo not given) | -6.92
57 | c1ccc2sc(N3CCCN(c4ncnc5c4CCNC5)CC3)nc2c1 | -7.26
58 | CCc1cc(N2CCC(NC3CCOCC3)CC2)nc(N(C)C)n1 | 25.7
59 | Cc1ccnc(N2CCC(=O)N(Cc3ccc(F)cc3)C(C(C)C)C2)n1 (stereo not given) | -9.2
60 | COc1cccc(OCC2CCCN(c3cc(C(N)=O)ccn3)C2)c1 (stereo not given) | -11.8
61 | CC(C)c1nc(CN(C)C(=O)c2cn3ccsc3n2)cs1 | 2.2
62 | O=C1N(Cc2ccc(F)c(F)c2)CCCC1(O)CNCc1ccccn1 (stereo not given) | -4.31
63 | N#Cc1ccccc1C(=O)N1C[C@H]2CC[C@@H]1CN(Cc1ccccc1)C2 | -13.1
64 | CC(C)=CCN1CCN(C(=O)COc2ccccc2)[C@H]2CS(=O)(=O)C[C@H]21 | 1.61
65 | Cn1ncc2c(NCC(=O)N3CCNCC3)nc(C(C)(C)C)nc21 | -1.24
66 | Cc1ccc(CN2CCC(n3cc(C(O)c4ccccc4)nn3)CC2)o1 (stereo not given) | -5.94

Row | SMILES | cytotoxicity at 70.5 h [%]
67 | Cc1[nH]ccc1C(=O)N1CCC2(CC1)c1nc[nH]c1CCN2CC(C)C | -8.19
68 | O=C(CCn1cc(Cl)cn1)N1CCN(CC2CC2)[C@@H]2CS(=O)(=O)C[C@@H]21 | -10.2
69 | COCCN1CC2(CCCN(C(=O)NCCc3cccs3)C2)CCC1=O (stereo not given) | 4.85
70 | Cc1cc(C(=O)N2CCCC(c3nccn3Cc3cscn3)C2)on1 (stereo not given) | -6.42
71 | O=C(c1ccccn1)N1C[C@@H]2CC[C@H](C1)N(C(=O)CCC(F)(F)F)C2 | -3.18
72 | Cc1cccc(CN2CCC(c3nccn3CC(N)=O)CC2)n1 | 22.7
73 | Cc1nsc(NC(=O)NC2CCN(C)CC2)n1 | -11.7
74 | COc1cnc(N2C[C@@H](CN3CCOCC3)[C@@H](CO)C2)nc1 | -5.35
75 | O=C1CCCCCN1Cc1ncnn1Cc1c(F)cccc1Cl | -5.62
76 | CCN1CC(C(=O)N2CC(Oc3ccccc3F)C2)CC1=O (stereo not given) | -1.35
77 | COc1ccc(F)cc1C(=O)N1CCC2(CCC(=O)N(C(C)C)C2)CC1 | -5.66
78 | CCc1nc(N)nc(NCc2cnn3cccnc23)c1C | -0.745
79 | CC(=O)N1CCN(C[C@H]2CC[C@@H](Cc3ccc4c(c3)OCO4)O2)CC1 | -1.65
80 | Cc1cccnc1CC(C)N(C)C(=O)c1ccoc1C (stereo not given) | 5.46
81 | Cc1noc(C)c1CN1C(=O)[C@H]2CC[C@@H]1CN(C(=O)c1cscn1)C2 | -2.09
82 | CSc1nccc(N2CCC3(CCCN(Cc4cccc(C)c4)C3)C2)n1 (stereo not given) | -0.65
83 | Cc1cc(=O)[nH]c(-c2cccc(CN3CCCN4CCCC4C3)c2)n1 (stereo not given) | -5.83
84 | CCC(C(=O)NCc1csc(-c2ncccn2)n1)n1cccn1 (stereo not given) | 13
85 | COc1ncc(C(=O)N2CCC3(CC2)C(=O)Nc2ccccc23)cn1 | 0.417
86 | CCS(=O)(=O)CCNC(=O)[C@@]12CNC[C@@H]1CN(C1CCCC1)C2 | -0.64
87 | O=c1[nH]nc(CCCN2CCOCC2)n1-c1ccc(F)cc1F | 24.5
88 | CC[C@@]1(O)CCN(CCCOc2ccc(C(N)=O)cc2)C[C@H]1O | -4.97

Row | SMILES | cytotoxicity at 70.5 h [%]
89 | COc1ccc(C(=O)N2C[C@@H](C)[C@@](C)(O)C2)cc1N1CCOCC1 | 2.73
90 | CN1CC2(CCN(CCCOCc3ccccc3)CC2)OC1=O | -9.74
91 | N[C@H]1CN(C(=O)Cc2cc(F)cc(Cl)c2)C[C@@H]1C1CC1 | -3.32
92 | NC(=O)CNC(=O)c1cc(Cn2cnc3ccccc32)[nH]n1 | -5.83
93 | Cc1csc(CCNC(=O)C2CCN(CC(N)=O)CC2)n1 | 8.97
94 | CC(C)c1nccn1CCCNC(=O)c1ccc(-c2cccnc2)nc1 | -9.12
95 | CN1CCN2CCN(C(=O)c3cc4ncc(CCO)cn4n3)CC2C1 (stereo not given) | -15.2
96 | CCNC(=O)C1CCN(c2cc(-c3ccccc3)nc3cc(C)nn23)C1 (stereo not given) | -2.31
97 | Cc1ccc(OCc2occc2C(=O)N2CCOC(C(=O)O)C2)cc1 (stereo not given) | 11.5
98 | O[C@@H]1CN(c2nc3ccccc3s2)CC[C@H]1c1ccc2c(c1)OCO2 | -3.71
99 | CN(Cc1cn(CC2CCNCC2)nn1)CC1CCCCO1 (stereo not given) | -8.15
100 | CCc1nc(N2CCC3(CCC(=O)N(CCCO)C3)CC2)no1 | 9.45
101 | C1CCC(c2nn3c(C4CCCO4)nnc3s2)C1 (stereo not given) | -9.64
102 | O=C1NCCN(C(=O)c2cn3ccsc3n2)C1c1cccc(F)c1 (stereo not given) | 25.9
103 | Cc1cc(C)n(-c2ccccc2NC(=O)NCCS(=O)(=O)CC(C)C)n1 | -8.6
104 | COc1cc(NC(=O)c2ccc(CN3CC[C@H](O)C3)cc2)cc(OC)c1 | -10.7
105 | Cc1nn(-c2ccccc2)c(C)c1-c1ccnc(N2CCC(O)CC2)n1 | -5.36
106 | CC(C)c1csc(C(=O)N2CCCC(Cn3cc(CO)nn3)C2)n1 (stereo not given) | -0.0869
107 | O=C(NC1CCCCC1)N1C[C@H]2CN(c3cnccn3)C[C@@]2(C(=O)O)C1 | -14.9
108 | CN(Cc1ccc(C(=O)Nc2sccc2C#N)cc1)Cc1ccno1 | -5.41
109 | O=C(c1ccc(C2CCNC2)cc1)N1CCC(N2CCC(O)CC2)CC1 (stereo not given) | 3.75
110 | COc1ccccc1CNC(=O)CN(C)C(C)c1ccon1 (stereo not given) | -18.5
